According to patent EP0567026B1, “4,1-Benzoxazepin derivatives as squalene synthase inhibitors and their use in the treatment of hypercholesteremia and as fungicides” (TAKEDA CHEMICAL INDUSTRIES, LTD., priority 1992, dated 1993):

System: hepatic cholesterogenesis
Experiment: In vivo cholesterogenesis in the liver ([14C]acetate incorporation into digitonin-precipitable hepatic sterols)
Settings: male Sprague-Dawley rats on 5%-cholestylamine diet for 4 days; dose of 30 mg/kg as suspension in 0.5%-methylcellulose; [14C]acetate i.v. 1 hour after administration, livers removed one hour later; compared to the control group
Experimental: Six-week-old, male Sprague-Dawley rats were given 5%-cholestylamine as a dietary admixture for 4 days. They were administered compound at a dose of 30 mg/kg as a suspension of 0.5%-methylcellulose solution and were intravenously given 2 uCi of [^14C]acetate 1 hour after the administration. One hour later, rats were sacrificed and livers were removed. Hepatic sterols were extracted with petroleum ether after saponification, and the radioactivity of digitonin-precipitable fraction was measured. Example 1-(4) inhibited the hepatic cholesterogenesis by 38% compared to the control group given only […] solution.

SMILES: CCOC(=O)CC1OC(c2ccccc2Cl)c2cc(Cl)ccc2N(CC(C)(C)C)C1=O (stereo not shown) [Example 1-(4)]
- inhibited the hepatic cholesterogenesis: 38%
